These results are taken from ChEMBL document CHEMBL3739277, “Design, synthesis, and antibacterial evaluation of novel azolylthioether quinolones as MRSA DNA intercalators” (2015).

One assay concerns Cyberlindnera jadinii. Nature of the assay: Antifungal activity against Candida utilis ATCC9950 assessed as growth inhibition incubated at 35 degC for 24 hrs by micro broth dilution method. It counts as functional. The conditions noted are these: Williopsis jadinii, ATCC9950, 24 h. For orientation: In broth dilution the organism is exposed to a series of concentrations in liquid medium.

For a further assay, the system named is Aspergillus flavus. The assay is described as follows: Antifungal activity against Aspergillus flavus ATCC204304 assessed as growth inhibition incubated at 35 degC for 24 hrs by micro broth dilution method. It counts as functional. The conditions noted are these: ATCC204304, 24 h.
A further assay relates to Saccharomyces cerevisiae. The assay is described as follows: Antifungal activity against Saccharomyces cerevisiae ATCC9763 assessed as growth inhibition incubated at 35 degC for 24 hrs by micro broth dilution method. As to conditions: ATCC9763, 24 h. It counts as functional.
Another assay concerns Candida albicans. Nature of the assay: Antifungal activity against Candida albicans ATCC10231 assessed as growth inhibition incubated at 35 degC for 24 hrs by micro broth dilution method. The format is functional. The conditions noted are these: ATCC10231, 24 h.
Assay [1] is described as follows: Antifungal activity against Candida mycoderma ATCC9888 assessed as growth inhibition incubated at 35 degC for 24 hrs by micro broth dilution method. It counts as functional. The conditions noted are these: Kregervanrija fluxuum.
A further assay deals with Micrococcus luteus. The assay is described as follows: Antibacterial activity against Micrococcus luteus ATCC4698 assessed as growth inhibition incubated at 37 degC for 24 hrs by micro broth dilution method. The format is functional. As to conditions: ATCC4698, 24 h.
Assay [2] has as its system Staphylococcus aureus. Nature of the assay: Antibacterial activity against methicillin resistant Staphylococcus aureus N315 assessed as growth inhibition incubated at 37 degC for 24 hrs by micro broth dilution method. The format is functional. As to conditions: N315, 24 h.
In assay [3] the test system is Staphylococcus aureus. The assay is described as follows: Antibacterial activity against Staphylococcus aureus ATCC25923 assessed as growth inhibition incubated at 37 degC for 24 hrs by micro broth dilution method. It counts as functional. The conditions noted are these: ATCC25923, 24 h.
The subject of the next assay is Bacillus subtilis. Nature of the assay: Antibacterial activity against Bacillus subtilis ATCC6633 assessed as growth inhibition incubated at 37 degC for 24 hrs by micro broth dilution method. It counts as functional. As to conditions: ATCC6633, 24 h.
The subject of assay [4] is Pseudomonas aeruginosa. The assay is described as follows: Antibacterial activity against Pseudomonas aeruginosa ATCC27853 assessed as growth inhibition incubated at 37 degC for 24 hrs by micro broth dilution method. It counts as functional. As to conditions: ATCC27853, 24 h.
The test system of another assay is Escherichia coli. Nature of the assay: Antibacterial activity against Escherichia coli JM109 assessed as growth inhibition incubated at 37 degC for 24 hrs by micro broth dilution method. It counts as functional. As to conditions: JM109, 24 h.
The nature of assay [5]: Antibacterial activity against Eberthella typhosa ATCC14028 assessed as growth inhibition incubated at 37 degC for 24 hrs by micro broth dilution method. As to conditions: ATCC14028, 24 h. It counts as functional.
The test system of assay [6] is Pseudomonas aeruginosa. The assay is described as follows: Potency index, ratio of chloramphenicol MIC to compound MIC for Pseudomonas aeruginosa ATCC27853. It counts as functional.
Assay [7] deals with Pseudomonas aeruginosa. The assay is described as follows: Potency index, ratio of clinafloxacin MIC to compound MIC for Pseudomonas aeruginosa ATCC27853. It counts as functional.
Assay [8] is described as follows: Antibacterial activity against Bacillus proteus ATCC13315 assessed as growth inhibition incubated at 37 degC for 24 hrs by micro broth dilution method. The format is functional. The conditions noted are these: ATCC13315, 24 h.
For assay [9], the system named is Staphylococcus aureus. Nature of the assay: Binding affinity to methicillin-resistant Staphylococcus aureus DNA assessed as induction of DNA intercalation by UV-visible spectroscopy.
The test system of assay [10] is Staphylococcus aureus. Nature of the assay: Binding affinity to methicillin-resistant Staphylococcus aureus DNA assessed as induction of DNA intercalation in presence of potassium iodide by fluorescence spectroscopy based Stern-Volmer plot.
The nature of assay [11]: Binding affinity to Cu2+ ion assessed as 1:1 compound-Cu2+ complex formation by fluorescence spectroscopy.
The test system of assay [12] is Staphylococcus aureus. Nature of the assay: Binding affinity to methicillin-resistant Staphylococcus aureus DNA assessed as induction of DNA intercalation by measuring as 1:1 compound-DNA complex formation in presence of Cu2+ ions by fluorescence spectroscopy.

The structures appear in SMILES notation. In brackets after ≈: the same amount, converted by molar mass. Activity calls are given as the source filed them. The calls are words filed in the database; no cut-off is given here.

On to `Cn1ccnc1SCC(O)CNC1CCN(c2c(F)cc3c(=O)c(C(=O)O)cn(C4CC4)c3c2Cl)C1` (configuration not stated), for which the MIC80 (in general, the lowest concentration that inhibits either 80% of growth or 80% of the strains tested, depending on the study) in the assay on Cyberlindnera jadinii amounted to 32 µg/mL (≈ 59.7 µM); in the assay on Aspergillus flavus, 32 µg/mL (≈ 59.7 µM); in the assay on Saccharomyces cerevisiae, 16 µg/mL (≈ 29.8 µM); with Candida albicans it was 0.5 µg/mL (≈ 0.933 µM); in assay [1] it was 1 µg/mL (≈ 1.87 µM). Further, the MIC (usually the lowest concentration that inhibits growth of the organism) worked out at 0.5 µg/mL (≈ 0.933 µM) in the assay on Micrococcus luteus; 0.25 µg/mL (≈ 0.466 µM) in the assay on Staphylococcus aureus [2]; 0.5 µg/mL (≈ 0.933 µM) in the assay on Staphylococcus aureus [3]; 0.5 µg/mL (≈ 0.933 µM) in the assay on Bacillus subtilis; 0.25 µg/mL (≈ 0.466 µM) in the assay with Pseudomonas aeruginosa [4]; 1 µg/mL (≈ 1.87 µM) in the assay on Escherichia coli. The MIC in assay [5] and in [8] was 0.5 µg/mL (≈ 0.933 µM) in each case. Moreover, the figures for the Ratio with Pseudomonas aeruginosa [6] and in the assay with Pseudomonas aeruginosa [7] were 64 and 4, respectively. Besides, the Activity result in the assay with Staphylococcus aureus [9] is “Dose-dependent effect”. Besides, the outcome (in the assay on Staphylococcus aureus [10]; in assay [11]; in the assay on Staphylococcus aureus [12]) was Active.

In the case of `CCn1cc(C(=O)O)c(=O)c2cc(F)c(N3CCN(CC(O)CSc4nnnn4C)CC3)cc21` (configuration not stated), the MIC80 worked out at 64 µg/mL (≈ 130 µM) with Cyberlindnera jadinii; 64 µg/mL (≈ 130 µM) in the assay with Aspergillus flavus; 128 µg/mL (≈ 260 µM) in the assay with Saccharomyces cerevisiae; 32 µg/mL (≈ 65.1 µM) in the assay on Candida albicans; 64 µg/mL (≈ 130 µM) in [1]. In addition, the MIC with Micrococcus luteus amounted to 64 µg/mL (≈ 130 µM); in the assay on Staphylococcus aureus [2] it was 128 µg/mL (≈ 260 µM); with Staphylococcus aureus [3], 128 µg/mL (≈ 260 µM); with Bacillus subtilis, 32 µg/mL (≈ 65.1 µM); in the assay with Pseudomonas aeruginosa [4], 128 µg/mL (≈ 260 µM); with Escherichia coli, 8 µg/mL (≈ 16.3 µM). Besides, the MIC is 32 µg/mL (≈ 65.1 µM) in assay [5] and 128 µg/mL (≈ 260 µM) in assay [8].

Turning to `O=C(O)c1cn(C2CC2)c2c(Cl)c(N3CCC(NCC(O)CSc4ncn(Cc5ccc(Cl)c(Cl)c5)n4)C3)c(F)cc2c1=O` (configuration not stated), the MIC80 was determined as 8 µg/mL (≈ 11.7 µM) in the assay on Cyberlindnera jadinii; 8 µg/mL (≈ 11.7 µM) in the assay on Aspergillus flavus; 16 µg/mL (≈ 23.5 µM) with Saccharomyces cerevisiae; 0.5 µg/mL (≈ 0.733 µM) in the assay with Candida albicans; 1 µg/mL (≈ 1.47 µM) in assay [1]. Further, the minimum inhibitory concentration (MIC) with Micrococcus luteus was determined as 0.5 µg/mL (≈ 0.733 µM); in the assay with Staphylococcus aureus [2], 0.5 µg/mL (≈ 0.733 µM); with Staphylococcus aureus [3] it was 0.5 µg/mL (≈ 0.733 µM); with Bacillus subtilis it was 0.5 µg/mL (≈ 0.733 µM); with Pseudomonas aeruginosa [4], 0.5 µg/mL (≈ 0.733 µM); in the assay on Escherichia coli, 1 µg/mL (≈ 1.47 µM). For the same compound, the MIC in assay [5] and in [8] was 0.5 µg/mL (≈ 0.733 µM) in each case.

Turning to `Cn1ccnc1SCC(O)CN1CCN(c2cc3c(cc2F)c(=O)c(C(=O)O)cn3C2CC2)CC1` (configuration not stated), the MIC80 was 128 µg/mL (≈ 255 µM) in the assay on Cyberlindnera jadinii; 64 µg/mL (≈ 128 µM) in the assay with Aspergillus flavus; 32 µg/mL (≈ 63.8 µM) in the assay with Saccharomyces cerevisiae; 4 µg/mL (≈ 7.97 µM) with Candida albicans; 16 µg/mL (≈ 31.9 µM) in assay [1]. Besides, the MIC in the assay with Micrococcus luteus was found to be 4 µg/mL (≈ 7.97 µM); in the assay with Staphylococcus aureus [2], 2 µg/mL (≈ 3.99 µM); in the assay with Staphylococcus aureus [3], 2 µg/mL (≈ 3.99 µM); with Bacillus subtilis it was 4 µg/mL (≈ 7.97 µM); in the assay with Pseudomonas aeruginosa [4], 8 µg/mL (≈ 15.9 µM); in the assay with Escherichia coli, 8 µg/mL (≈ 15.9 µM). Besides, the MIC amounted to 1 µg/mL (≈ 1.99 µM) in [5] and 2 µg/mL (≈ 3.99 µM) in assay [8].

For `O=C(O)c1cn(C2CC2)c2cc(N3CCN(CC(O)Cn4cnc(S)n4)CC3)c(F)cc2c1=O` (configuration not stated), the MIC80 in the assay with Cyberlindnera jadinii was 128 µg/mL (≈ 262 µM); in the assay on Aspergillus flavus, 64 µg/mL (≈ 131 µM); in the assay with Saccharomyces cerevisiae, 64 µg/mL (≈ 131 µM); in the assay on Candida albicans it was 8 µg/mL (≈ 16.4 µM); in assay [1], 32 µg/mL (≈ 65.5 µM). Moreover, the MIC in the assay on Micrococcus luteus came to 16 µg/mL (≈ 32.8 µM); with Staphylococcus aureus [2], 16 µg/mL (≈ 32.8 µM); in the assay with Staphylococcus aureus [3] it was 2 µg/mL (≈ 4.09 µM); with Bacillus subtilis it was 4 µg/mL (≈ 8.19 µM); in the assay with Pseudomonas aeruginosa [4], 4 µg/mL (≈ 8.19 µM); in the assay with Escherichia coli, 8 µg/mL (≈ 16.4 µM). In addition, the values for the MIC in assay [5] and in assay [8] were 1 µg/mL (≈ 2.05 µM) and 4 µg/mL (≈ 8.19 µM), respectively.

For the compound `O=C(O)c1cn(C2CC2)c2c(Cl)c(N3CCC(NCC(O)CSc4ncn(Cc5ccc(Cl)cc5Cl)n4)C3)c(F)cc2c1=O` (configuration not stated), the MIC80 is 16 µg/mL (≈ 23.5 µM) in the assay on Cyberlindnera jadinii; 64 µg/mL (≈ 93.8 µM) in the assay on Aspergillus flavus; 64 µg/mL (≈ 93.8 µM) in the assay on Saccharomyces cerevisiae; 16 µg/mL (≈ 23.5 µM) with Candida albicans; 4 µg/mL (≈ 5.87 µM) in assay [1]. For the same compound, the MIC was 4 µg/mL (≈ 5.87 µM) in the assay on Micrococcus luteus; 8 µg/mL (≈ 11.7 µM) in the assay with Staphylococcus aureus [2]; 2 µg/mL (≈ 2.93 µM) in the assay with Staphylococcus aureus [3]; 0.5 µg/mL (≈ 0.733 µM) in the assay on Bacillus subtilis; 1 µg/mL (≈ 1.47 µM) in the assay with Pseudomonas aeruginosa [4]; 1 µg/mL (≈ 1.47 µM) in the assay on Escherichia coli. The MIC in assay [5] came out at 1 µg/mL (≈ 1.47 µM); in assay [8], 0.5 µg/mL (≈ 0.733 µM).

Consider `CCn1cc(C(=O)O)c(=O)c2cc(F)c(N3CCN(CC4CO4)CC3)cc21` (configuration not stated), for which the MIC80 in the assay on Cyberlindnera jadinii is 8 µg/mL (≈ 21.3 µM); in the assay on Aspergillus flavus, 1 µg/mL (≈ 2.66 µM); in the assay with Saccharomyces cerevisiae, 1 µg/mL (≈ 2.66 µM); with Candida albicans, 4 µg/mL (≈ 10.7 µM); in [1], 1 µg/mL (≈ 2.66 µM). For the same compound, the MIC stood at 8 µg/mL (≈ 21.3 µM) in the assay with Micrococcus luteus; 2 µg/mL (≈ 5.33 µM) in the assay with Staphylococcus aureus [2]; 8 µg/mL (≈ 21.3 µM) with Staphylococcus aureus [3]; 64 µg/mL (≈ 170 µM) with Bacillus subtilis; 16 µg/mL (≈ 42.6 µM) in the assay with Pseudomonas aeruginosa [4]; 2 µg/mL (≈ 5.33 µM) in the assay with Escherichia coli. Further, the values for the MIC in assay [5] and in assay [8] were 16 µg/mL (≈ 42.6 µM) and 4 µg/mL (≈ 10.7 µM), respectively.
